Where “and” joins values, the source holds several entries; their conditions need not be identical. Equal values may be shown once. Read-outs that look alike come from different tables or passages of the source.
How the values were obtained:
[1] = MTT cytotoxicity assay, 3T3 cells; assay type: cell-based, mouse; conditions: mouse, 3T3 mouse embryo fibroblasts, 3T3, 10 000 b/j; for viability at 72 h, 1 μM: koncentrace 1 μM; for viability at 72 h, 3 μM: koncentrace 3 μM; for viability at 72 h, 10 μM: koncentrace 10 μM; for viability at 72 h, 30 μM: koncentrace 30 μM; for viability at 72 h, 100 μM: koncentrace 100 μM; for viability at 72 h, 300 μM: koncentrace 300 μM; for viability at 72 h, 1000 μM: koncentrace 1000 μM
Procedure, shortened: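 Non-cancerous 3T3 mouse embryo fibroblasts were plated at 10,000 cells/well in 96-well plates and cultured for 24 h/37°C. The medium was then replaced with serum- and pyruvate-free DMEM for a further 24 h/37°C. Cells were exposed to agents for 72 h/37°C with 0.1% DMSO present, and viability was measured by MTT.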

[2] = system: H9c2 cardiomyoblasts; assay: MTT cytotoxicity assay, H9c2 cells; assay type: cell-based, rat; conditions: for IC50: MTT
Procedure, shortened: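 72 h/37°C exposure, 0.1% DMSO. Plating: MCF-7 5,000; HCT116, A549 2,000; H9c2 10,000 cells/well, H9c2 switched to serum/pyruvate-free DMEM 24 h. MTT OD 570 nm, 690 nm background subtracted. Viability as % untreated control; IC50 derived.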

[3] = system: caspase 9; assay: Caspase activity, luminescent kit, caspase 9; assay type: cell-based, human; conditions: for kaspáza 9, raw signal / kaspáza 9, signal / viabilita: individual experiments by date
Description: To assess the effect of the compounds on caspase activity, MCF-7 cells were incubated with 100 nM Bp4eT or its metabolites for 3, 24 or 72 h/37°C in 96-well plates, as described above. The cells were then lysed by adding 100 μL of cold lysis buffer (100 mM HEPES, 10 mM CHAPS, 10 mM D-L-dithiothreitol, pH 7.4) to 100 μL of medium in each well. Lysates were immediately frozen at -80°C. Thawed lysates were used to assess caspase activity using luminescent kits for caspases 3/7, 8 and 9 (Promega, Madison, WI, USA). The luminescence was measured using the Tecan Infinite 200M plate reader. Caspase activity in the experimental groups was corrected according to the cellular viability of each group and expressed as a percentage of activity of the untreated control (100%).

[4] = individual experiments, read-out: MTT viability (0 = 100)
[5] = mean, read-out: MTT viability (0 = 100), průměr

In the case of `CCN=CNN=C(c1ccccc1)c1ccccn1` [Bp4eA, N ^3-ethyl-N ^1-[phenyl(pyridin-2-yl)methylene]formamidrazone], the viability at 72 h, 1 μM [1, 4] is reported as 110%, the viability at 72 h, 1 μM [1, 5] is reported as 100% and the viability at 72 h, 3 μM [1, 4] is reported as 106%. The viability at 72 h, 3 μM [1, 5] was 98.2%, the viability at 72 h, 10 μM [1, 4] was 103% and the viability at 72 h, 10 μM [1, 5] was 94.7%. The viability at 72 h, 30 μM [1, 4] was 101%, the viability at 72 h, 30 μM [1, 5] was 92.8% and the viability at 72 h, 100 μM [1, 4] was 88.8%. The viability at 72 h, 100 μM [1, 5] was 87.3%, the viability at 72 h, 300 μM [1, 4] was 80.5% and the viability at 72 h, 300 μM [1, 5] was 78.1%. For the same molecule, the viability at 72 h, 1000 μM [1, 4] was 37.5%, the viability at 72 h, 1000 μM [1, 5] was 47.2% and the “MTT, relative to control (0 = 100)” value ([2]; H9c2, 10 000 b/j, 1 μM, průměr (mean), sheet Bp4eA) was 96.26. For the same molecule, the “MTT, relative to control (0 = 100)” value ([2]; H9c2, 10 000 b/j, 1 μM, single experiment (date), sheet Bp4eA) was 96.9641 and 92.8493 and 97.4859 and 95.7195 and 98.2981, the “MTT, relative to control (0 = 100)” value ([2]; H9c2, 10 000 b/j, 3 μM, průměr (mean), sheet Bp4eA) was 96.27 and the “MTT, relative to control (0 = 100)” value ([2]; H9c2, 10 000 b/j, 3 μM, single experiment (date), sheet Bp4eA) was 100.784 and 93.7843 and 97.6949 and 91.6948 and 97.3803. The “MTT, relative to control (0 = 100)” value ([2]; H9c2, 10 000 b/j, 10 μM, průměr (mean), sheet Bp4eA) was 95.56, the “MTT, relative to control (0 = 100)” value ([2]; H9c2, 10 000 b/j, 10 μM, single experiment (date), sheet Bp4eA) was 96.5102 and 92.1411 and 95.5166 and 98.0809 and the “MTT, relative to control (0 = 100)” value ([2]; H9c2, 10 000 b/j, 30 μM, průměr (mean), sheet Bp4eA) was 93.18. For the same molecule, the “MTT, relative to control (0 = 100)” value ([2]; H9c2, 10 000 b/j, 30 μM, single experiment (date), sheet Bp4eA) was 94.6024 and 93.1446 and 95.1622 and 88.8218 and 94.1801, the “MTT, relative to control (0 = 100)” value ([2]; H9c2, 10 000 b/j, 100 μM, průměr (mean), sheet Bp4eA) was 76.55 and the “MTT, relative to control (0 = 100)” value ([2]; H9c2, 10 000 b/j, 100 μM, single experiment (date), sheet Bp4eA) was 76.7908 and 72.9908 and 82.9441 and 73.781 and 76.2525. For the same molecule, the “MTT, relative to control (0 = 100)” value ([2]; H9c2, 10 000 b/j, 300 μM, průměr (mean), sheet Bp4eA) was 66.55, the “MTT, relative to control (0 = 100)” value ([2]; H9c2, 10 000 b/j, 300 μM, single experiment (date), sheet Bp4eA) was 71.4763 and 63.147 and 62.7404 and 68.8465 and the “MTT, relative to control (0 = 100)” value ([2]; H9c2, 10 000 b/j, 1000 μM, průměr (mean), sheet Bp4eA) was 23.16. For the same molecule, the “MTT, relative to control (0 = 100)” value ([2]; H9c2, 10 000 b/j, 1000 μM, single experiment (date), sheet Bp4eA) was 17.0741 and 23.4615 and 18.1134 and 33.9931, the IC50 ([2]; H9c2, 10 000 b/j, single experiment (date), sheet Bp4eA, read-out: IC50 měřené) was 510 µM and 315 µM and 533 µM and the IC50 ([2]; Rattus norvegicus, H9c2, 72 h, H9c2, 72 h/37°C, mean ± SD, n ≥ 4, read-out: IC50) was 416 ± 122 µM. For the same molecule, the IC50 ([2]; Rattus norvegicus, H9c2, H9c2, 10 000 b/j, průměr (mean), sheet Bp4eA, read-out: IC50 měřené) was 416 µM, the IC50 ([2]; Rattus norvegicus, H9c2, H9c2, 10 000 b/j, single experiment (date), sheet Bp4eA, read-out: IC50 měřené) was 306 µM and the “kaspáza 9, raw signal” value ([3]; 3 hodiny) was 5948 and 2664.5 and 3083.5 and 2163.5. For the same molecule, the “kaspáza 9, raw signal, průměry” value ([3]; 3 hodiny, mean) was 3464.88, the “kaspáza 9, % kontroly” value ([3]; 3 hodiny, mean, normalised to viability) was 101.76 % kontroly and the “kaspáza 9, signal / viabilita” value ([3]; 3 hodiny, normalised to viability) was 61.4437 and 27.5247 and 31.853 and 22.3493. The “kaspáza 9, signal / viabilita, průměry” value ([3]; 3 hodiny, normalised to viability, mean) was 35.7927, the “kaspáza 9, raw signal” value ([3]; 24 hodin) was 4444 and 2960 and 4885.5 and 3130 and the “kaspáza 9, raw signal, průměry” value ([3]; 24 hodin, mean) was 3854.88. The “kaspáza 9, % kontroly” value ([3]; 24 hodin, mean, normalised to viability) was 99.64 % kontroly and the “kaspáza 9, signal / viabilita” value ([3]; 24 hodin, normalised to viability) was 46.4885 and 30.9645 and 51.1071 and 32.7428.
